Read-outs that look alike come from different tables or passages of the source.
Experiments:
[1] = system: MDA-MB-468-UnaG; test: 2D cell viability in MDA-MB-468-UnaG under normoxia or CoCl2-simulated hypoxia
[2] = system: 3D co-culture spheroids of MDA-MB-231 and primary murine CAFs; test: 3D cell viability (ATP content) in TNBC co-culture spheroids; assay type: cell-based, human MDA-MB-231; conditions: Mus musculus, MDA-MB-231
Protocol: On day 1, 3000 cells were seeded into a low-attachment 96 well plate (Greiner; #650970). […] Cell viability was determined based on the ATP content in viable cells according to the manufacturer`s instructions (Promega #G9682). Co-culture spheroids were generated for 72 h before they were grown for another 72 h with or without exposure to the compounds. […] Cell viability-dependent luminescence was determined as relative light units (RLU) using the microplate reader Spark® (Tecan).

[3] = system: NFκB; test: NFκB inhibition assay (24 h), NFκB-dependent firefly luciferase reporter; assay type: cell-based; conditions: Homo sapiens; NFκB-MDA-MB-231-firefly cells, 24-h treatment, 20 ng/mL TNFα, mean ± SD; read-out: NFκB Inhibition 24 h IC50
Protocol: On day 1, 3 × 10^4 NFκB MDA-MB-231-firefly cells were seeded into white 96 well plates (Greiner; #655098). On day 2, the medium was replaced with starvation medium and the cells were pre-incubated for 20 min with either 100 µL of DMSO (Roth; #A994.1) alone at maximal 0.1%, or with the final concentration of the diluted compounds (Table 3). To activate NFκB signaling, cells were stimulated with 20 ng/mL TNFα (Peprotech, Hamburg, Germany; #300-01A). Cell lysis was performed in 20 µL 1× cell lysis buffer according to the manufacturer’s instruction for the Luciferase Assay System (Promega #E1500). NFκB-dependent luminescence was determined as relative light units (RLU) using the microplate reader Spark® (Tecan).

[4] = system: MDA-MB-468-UnaG; test: Cell cycle studies (PI-DNA flow cytometry) in MDA-MB-468-UnaG; assay type: cell-based; conditions: normoxia
Protocol: To investigate cell cycle progression in the presence of compound (1s) or paclitaxel (Santa Cruz Biotechnology; #sc-201439), we quantified the DNA content in the cell. On day 1, the cells were seeded in 1 mL into a 24 well plate (Greiner; #662160). On day 2, MDA-MB-468-UnaG were pre-treated either without (normoxia) or with 100 µM CoCl2 (hypoxia) (Sigma-Aldrich; #C8661) for 24 h before compounds were applied. On day 2 for MDA-MB-231 or on day 3 for MDA-MB-468-UnaG, paclitaxel was applied at the concentrations 15 nM, 37 nM, and 100 nM, and compound (1s) was applied at concentrations ranging from 2 nM to 1000 nM. Post-treatment cells were washed in 1× PBS (Thermo Fisher Scientific; #14190); fixed in 70% (v/v) ethanol overnight at 4 °C; washed again in 1× PBS; and, finally, DNA was stained for 15 min at 37 °C in the presence of 10 µg/mL propium iodide (PI; Sigma-Aldrich; #4864) and 100 µg/mL RNase A (Thermo Fisher Scientific; #EN0531) dissolved in 0.1% triton™ X-100 (Sigma-Aldrich; #X100), dissolved in PBS. The fluorescence signal resulting from PI-DNA complex formation was recorded using the flow cytometer CytoFlex (Beckmann Coulter, Krefeld, Germany). The cell cycle phase population was determined based on the DNA content in a set of chromosomes (n) in a cell using the integrated software CytExpert (Beckmann Coulter): sub-G0/G1 (<2n), G0/G1 (2n), S (>2n, <4n), G2/M (4n) or hyperploid cells (>4n) (see Figure S10).

[5] = system: MDA-MB-231; test: 2D cell viability (PrestoBlue resazurin) in MDA-MB-231; assay type: cell-based, human; conditions: Homo sapiens
Protocol: Cell viability was determined based on resazurin-reduction in viable cells according to the PrestoBlue^TM Assay. On day 1, MDA-MB-231 (1.5 × 10^4 cells per well or 7.5 × 10^3 cells per well) were seeded into black 96 well plates (Greiner; #655090) in a total volume of 100 µL. On day 2, the compounds or DMSO (Roth; #A994.1) alone at maximal 0.1% were applied (final concentrations after serial dilution shown in Table 3). An amount of 20 µM staurosporine (Sigma-Aldrich; #S5921) served as a positive control. On day 3, the PrestoBlue^TM reagent (Invitrogen^TM, Darmstadt, Germany; #A13262) was applied according to the manufacturer`s instructions. Finally, cell viability-dependent fluorescence was recorded in relative fluorescence units (RFU) with excitation/emission (Exλ/Emλ) at 535/590 nm or 560/590 nm, using the microplate reader Spark® (Tecan).

[6] = system: 3D co-culture spheroids of MDA-MB-231 and primary murine CAFs; test: 3D growth studies, spheroid size of co-culture spheroids; assay type: cell-based, human MDA-MB-231; conditions: 100 nM, 72 h
Protocol: To emulate the TNBC microenvironment, 3D spheroids composed of MDA-MB-231 and CAFs at a ratio of 1:2 in a collagen-based matrix were generated. The culture medium of both cell lines was mixed (DMEM:RPMI 1640 (1:1) + 12.5% FCS + 1% PS) and supplemented with 0.05 mg/mL collagen type I (Thermo Fisher Scientific; #A1048301). On day 1, 3000 cells were seeded into a low-attachment 96 well plate (Greiner; #650970). Spheroids were grown for 72 h before proceeding with compound treatment on day 4, and analysis on day 7 according to the “Spheroid immunostaining”, “3D cell viability”, or “3D growth” studies presented in the results section.
Co-culture spheroids were generated for 72 h before they were exposed to either DMSO (Roth; #A994.1) alone at maximal 0.1%, 100 nM paclitaxel (Santa Cruz Biotechnology; #sc-201439), or 100 nM of compound (1) for another 72 h. At least three spheroids per treatment group were analyzed. For that purpose, brightfield images of the spheroids were acquired at 100× g magnification using the microscope Axio Vert.A1 (Zeiss). The spheroid surface area was quantified in brightfield images using Fiji (open-source software; version 1.52i) and was further defined as spheroid size. In each individual experiment spheroid size was normalized to the smallest (which was set to 0%) and to the largest spheroids (which was set to 100%).

[7] = system: NFκB; test: NFκB inhibition assay (2 h), NFκB-dependent nanoluc luciferase reporter; assay type: cell-based, human; conditions: Homo sapiens; NFκB-MDA-MB-231-nanoluc cells, 2-h treatment, mean ± SD; read-out: NFκB Inhibition 2 h IC50
Protocol: Experiments were performed according to the published protocol. On day 1, 4 × 10^4 NFκB-MDA-MB-231-nanoluc cells were seeded into white 96 well plates (Greiner; #655098). On day 2, the medium was replaced with starvation medium and the cells were pre-incubated for 20 min with either 100 µL of DMSO (Roth; #A994.1) alone at a concentration of maximal 0.1% or with the final concentration of the diluted compounds (Table 3). To activate NFκB signaling, cells were stimulated with 1 µg/mL LPS (Sigma-Aldrich; #L2630) beforehand. NFκB-dependent luciferase activity was measured according to the manufacturer`s protocol for the Nano-Glo Luciferase Assay System (Promega, Mannheim, Germany; #N1110). NFκB-dependent luminescence was determined as relative light units (RLU) using the microplate reader Spark® (Tecan, Männedorf, Switzerland).

Compound: CC(=O)O[C@H]1C(=O)[C@@]2(C)[C@H]([C@H](OC(=O)c3ccccc3)[C@]3(O)C[C@H](OC(=O)[C@H](O)[C@@H](NC(=O)c4ccccc4)c4ccccc4)C(C)=C1C3(C)C)[C@]1(OC(C)=O)CO[C@@H]1C[C@@H]2O [Paclitaxel, paclitaxel, reference compound]
- IC50 ([1]; 24 h, read-out: cell viability IC50, hypoxia): > 1000 nM
- decrease of cytotoxic effects by hypoxia (factor) ([1]; hypoxia vs normoxia, MDA-MB-468-UnaG): ≥ 100
- IC50 ([1]; read-out: cell viability IC50, normoxia): 7.7 nM
- IC50 ([2]; 3D co-culture spheroids, 72 h treatment, mean ± SD (n = 3), read-out: Reduction of Cell Viability 72 h IC50): 43 ± 14.3 nM
- IC50 ([2]; co-culture spheroids, 72 h, one individual experiment (Figure S3b), read-out: IC50 of representative dose-response, 3D cell viability): 42.8 nM
- IC50 [3]: > 1000 nM
- sub-G0/G1 population ([4]; 48 h): increase in the sub-G0/G1 population
- cell cycle phase population ([4]; (1s) 20 nM 72 h, paclitaxel within 24 h): significantly induces a G2/M arrest
- IC50 ([5]; MDA-MB-231 2D monolayer, 24 h post-treatment, mean ± SD, read-out: Reduction of Cell Viability 24 h IC50): 37.4 ± 8.6 nM
- IC50 ([5]; MDA-MB-231, 24 h, one individual experiment (Figure S3a), read-out: IC50 of representative dose-response, 2D cell viability): 36.9 nM
- reduction of spheroid growth compared to untreated spheroids [6]: 25%
- IC50 [7]: > 1000 nM
